# In ChEMBL document CHEMBL3392982, “Synthesis and membrane-protective activity of novel derivatives of α-mangostin at the C-4 position” (Bioorg Med Chem Lett, 2015):
# Activity calls are given as the source filed them. The rule behind the calls is not given here.
# Key:
# [1] = tested on: Erythrocyte; assay: Inhibition of H2O2-induced oxyhemoglobin oxidation in mouse erythrocytes assessed as metHb/oxyHb ratio level at 30 uM pre-incubated for 30 mins before H2O2 injection and measured 5 hrs post H2O2 injection; type: functional; design: scale not given: the % may be the effect or the level left
# [2] = tested on: Erythrocyte; assay: Inhibition of H2O2-induced oxyhemoglobin oxidation in mouse erythrocytes assessed as ferrylHb/oxyHb ratio level at 30 uM pre-incubated for 30 mins before H2O2 injection and measured 5 hrs post H2O2 injection; type: functional; design: scale not given: the % may be the effect or the level left
# [3] = Toxicity in H2O2-induced mouse erythrocytes assessed as induction of hemolysis at 30 uM pre-incubated for 30 mins before H2O2 injection and measured 5 hrs post H2O2 injection; type: cell-based; details: erythrocyte
# [4] = tested on: Erythrocyte; assay: Membrane-protective activity in mouse erythrocytes assessed as inhibition of H2O2-induced hemolysis pre-incubated for 30 mins before H2O2 injection and measured 5 hrs post H2O2 injection; type: functional, cell-based
# [5] = tested on: Erythrocyte; assay: Antioxidant activity in mouse erythrocytes assessed as inhibition of H2O2-induced secondary lipid peroxidation at 1 to 30 uM pre-incubated for 30 mins before H2O2 injection and measured 4 hrs post H2O2 injection by TBARS detection based spectrophotometry; type: functional, cell-based
# [6] = Toxicity in mouse erythrocytes assessed as induction of hemolysis at 10 and 30 uM incubated for 5 hrs; type: cell-based; details: erythrocyte
# [7] = tested on: Erythrocyte; assay: Inhibition of H2O2-induced oxyhemoglobin oxidation in mouse erythrocytes assessed as ferrylHb/oxyHb ratio level at 10 uM pre-incubated for 30 mins before H2O2 injection and measured 5 hrs post H2O2 injection; type: functional; design: scale not given: the % may be the effect or the level left
# [8] = tested on: Erythrocyte; assay: Inhibition of H2O2-induced oxyhemoglobin oxidation in mouse erythrocytes assessed as metHb/oxyHb ratio level at 10 uM pre-incubated for 30 mins before H2O2 injection and measured 5 hrs post H2O2 injection; type: functional; design: scale not given: the % may be the effect or the level left
# [9] = tested on: Erythrocyte; assay: Inhibition of H2O2-induced oxyhemoglobin oxidation in mouse erythrocytes assessed as metHb/oxyHb ratio level at 1 uM pre-incubated for 30 mins before H2O2 injection and measured 5 hrs post H2O2 injection; type: functional; design: scale not given: the % may be the effect or the level left
# [10] = tested on: Erythrocyte; assay: Inhibition of H2O2-induced oxyhemoglobin oxidation in mouse erythrocytes assessed as ferrylHb/oxyHb ratio level at 1 uM pre-incubated for 30 mins before H2O2 injection and measured 5 hrs post H2O2 injection; type: functional; design: scale not given: the % may be the effect or the level left
# [11] = Toxicity in rabbit erythrocytes assessed as induction of hemolysis at 10 uM within 1 hr; type: cell-based, Oryctolagus cuniculus, Erythrocyte; details: read-out: Activity
# [12] = Toxicity in rabbit erythrocytes assessed as induction of cell death at 7.8 to 15.6 uM within 1 hr; type: cell-based, Oryctolagus cuniculus, Erythrocyte; details: read-out: Activity
# [13] = tested on: Erythrocyte; assay: Membrane-protective activity in mouse erythrocytes assessed as inhibition of H2O2-induced hemolysis at 1 uM pre-incubated for 30 mins before H2O2 injection and measured 5 hrs post H2O2 injection; type: functional, cell-based
# [14] = tested on: Erythrocyte; assay: Membrane-protective activity in mouse erythrocytes assessed as inhibition of H2O2-induced hemolysis at 10 to 30 uM pre-incubated for 30 mins before H2O2 injection and measured 5 hrs post H2O2 injection; type: functional, cell-based
# [15] = tested on: Erythrocyte; assay: Membrane-protective activity in mouse erythrocytes assessed as inhibition of H2O2-induced hemolysis at 30 uM pre-incubated for 30 mins before H2O2 injection and measured 5 hrs post H2O2 injection; type: functional, cell-based
Structure (SMILES),Activity [1] [%],Activity [2] [%],Activity [3],Activity [4],Activity [5],Activity [6],Activity [7] [%],Activity [8] [%],Activity [9] [%],Activity [10] [%],"hemolysis at 1 h, 10 µM [11] [%]","hemolysis at 1 h, up to 15.6 µM [12] [%]",Activity [13],Activity [14],Activity [15]
COc1c(O)cc2oc3c(CN(C)C)c(O)c(CC=C(C)C)c(O)c3c(=O)c2c1CC=C(C)C,196.4,162.3,Toxic,Dose-dependent effect,Active,Non-toxic,35.5,37.5,65.8,67.4,,,,,
COc1c(O)cc2oc3cc(O)c(CC=C(C)C)c(O)c3c(=O)c2c1CC=C(C)C [MANGOSTIN],,,Toxic,Dose-dependent effect,Active,Toxic,39.5,45.5,44.7,55.3,10.1,10.5,,,
COc1c(O)cc2oc3c(Cc4cc([C@H]5C[C@@H]6CC[C@@]5(C)C6(C)C)c(O)c([C@@H]5C[C@H]6CC[C@]5(C)C6(C)C)c4)c(O)c(CC=C(C)C)c(O)c3c(=O)c2c1CC=C(C)C,105.6,64.2,,,Active,Non-toxic,70.9,77.3,60.1,61.5,,,Active,,
COc1c(O)cc2oc3c(CN4CCOCC4)c(O)c(CC=C(C)C)c(O)c3c(=O)c2c1CC=C(C)C,27.9,25.2,,,Active,Non-toxic,37.1,42.7,112.5,91.8,,,,Active,
COc1c(O)cc2oc3c(Cc4cc(C(C)(C)C)c(O)c(C(C)(C)C)c4)c(O)c(CC=C(C)C)c(O)c3c(=O)c2c1CC=C(C)C,35.5,22.5,,,Active,Non-toxic,53.3,63.8,98.4,81,,,,,Active
COc1c(O)cc2oc3c(CN4CCCCC4)c(O)c(CC=C(C)C)c(O)c3c(=O)c2c1CC=C(C)C,24,18.5,,,Active,Non-toxic,32.3,40.7,56.9,58,,,,Active,
